ChEMBL document CHEMBL1201862, “PubChem BioAssay data set” (2004)
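All cell lines were grown in 96-well plates and treated with compound for 48 hours. The concentration for 50% growth inhibition is given as GI50.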 Calls of active or inactive are those of the source. Cut-off read from the data, not from the text of the source: active = GI50 up to about 1.1 µM and inactive = higher.

What was measured:
Assay in all cases: NCI anticancer screen, dose series, 48 h
[1] = test system: MDA-MB-231
[2] = test system: A498
[3] = test system: MDA-MB-435
[4] = test system: SW-620
[5] = test system: UO-31
[6] = test system: DU-145
[7] = test system: T47D
[8] = test system: SF-539
[9] = test system: KM12
[10] = test system: SK-MEL-28
[11] = test system: CCRF-CEM
[12] = test system: SN12C
[13] = test system: SK-MEL-2
[14] = test system: UACC-62
[15] = test system: TK-10
[16] = test system: NCI/ADR-RES
[17] = test system: M14
[18] = test system: MDA-N
[19] = test system: OVCAR-5
[20] = test system: K562

SMILES | GI50 [1] | GI50 [2] | GI50 [3] | GI50 [4] | GI50 [5] | GI50 [6] | GI50 [7] | GI50 [8] | GI50 [9] | GI50 [10] | GI50 [11] | GI50 [12] | GI50 [13] | GI50 [14] | GI50 [15] | GI50 [16] | GI50 [17] | GI50 [18] | GI50 [19] | GI50 [20]
CC(=O)OCC1=CC2OC(=O)C3=COC(OC4OC(CO)C(O)C(O)C4O)C1C32 (configuration not stated) | > 100 µM (inactive) | > 100 µM (inactive) | > 100 µM (inactive) | > 100 µM (inactive) | > 100 µM (inactive) | > 100 µM (inactive) | > 100 µM (inactive) | > 100 µM (inactive) | > 100 µM (inactive) | > 100 µM (inactive) | > 100 µM (inactive) | > 100 µM (inactive) | > 100 µM (inactive) | > 100 µM (inactive) | > 100 µM (inactive) | > 100 µM (inactive) | > 100 µM (inactive) | > 100 µM (inactive) | > 100 µM (inactive) | –
S=C(Nc1c2c(nc3ccccc13)CCCC2)Nc1c2c(nc3ccccc13)CCCC2 | > 100 µM (inactive) | > 100 µM (inactive) | > 100 µM (inactive) | > 100 µM (inactive) | > 100 µM (inactive) | > 100 µM (inactive) | > 100 µM (inactive) | – | > 100 µM (inactive) | > 100 µM (inactive) | > 100 µM (inactive) | > 100 µM (inactive) | > 100 µM (inactive) | > 100 µM (inactive) | > 100 µM (inactive) | > 100 µM (inactive) | > 100 µM (inactive) | > 100 µM (inactive) | > 100 µM (inactive) | > 100 µM (inactive)
Cc1ccc(S(=O)(=O)NNC(=O)c2cc(C)c(C)cc2N)cc1 | > 100 µM (inactive) | > 100 µM (inactive) | > 100 µM (inactive) | > 100 µM (inactive) | > 100 µM (inactive) | > 100 µM (inactive) | 96.6 µM (inactive) | > 100 µM (inactive) | > 100 µM (inactive) | > 100 µM (inactive) | > 100 µM (inactive) | > 100 µM (inactive) | – | > 100 µM (inactive) | – | > 100 µM (inactive) | > 10 µM (inactive) | > 100 µM (inactive) | > 100 µM (inactive) | > 100 µM (inactive)
O=C1OCN(c2ccccc2)C12CCN(Cc1ccccc1)CC2 | 21.8 µM (inactive) | – | 17.1 µM (inactive) | 18 µM (inactive) | 51.3 µM (inactive) | 66.4 µM (inactive) | 23 µM (inactive) | 20.8 µM (inactive) | 23.7 µM (inactive) | 19.3 µM (inactive) | 15.5 µM (inactive) | 42.6 µM (inactive) | 25.8 µM (inactive) | 18.6 µM (inactive) | 32.8 µM (inactive) | 50.4 µM (inactive) | 18.2 µM (inactive) | 23.6 µM (inactive) | > 100 µM (inactive) | 5.35 µM (inactive)
C=C1C(=O)O[C@@H]2C[C@@]3(C)CC(=O)C=C(C)[C@@H]3C[C@H]12 | 16.9 µM (inactive) | > 10 µM (inactive) | 5.66 µM (inactive) | 3.33 µM (inactive) | 11.5 µM (inactive) | 4.29 µM (inactive) | 11.2 µM (inactive) | 13.3 µM (inactive) | 18.6 µM (inactive) | 5.73 µM (inactive) | 5.83 µM (inactive) | 11.1 µM (inactive) | 12.9 µM (inactive) | 14.6 µM (inactive) | 10.2 µM (inactive) | 11.3 µM (inactive) | 13.5 µM (inactive) | 3.74 µM (inactive) | 14.7 µM (inactive) | –
N#C/C(=C\n1ccc(=O)[nH]c1=S)C(N)=O | > 100 µM (inactive) | > 100 µM (inactive) | > 100 µM (inactive) | > 100 µM (inactive) | > 100 µM (inactive) | > 100 µM (inactive) | > 100 µM (inactive) | > 100 µM (inactive) | > 100 µM (inactive) | > 100 µM (inactive) | > 100 µM (inactive) | > 100 µM (inactive) | > 100 µM (inactive) | > 100 µM (inactive) | – | > 100 µM (inactive) | > 100 µM (inactive) | > 100 µM (inactive) | > 100 µM (inactive) | > 100 µM (inactive)
NC(=O)C(=CNC(=S)Nc1ccccc1)C(N)=O | > 100 µM (inactive) | > 100 µM (inactive) | > 100 µM (inactive) | > 100 µM (inactive) | – | > 100 µM (inactive) | 97.7 µM (inactive) | > 100 µM (inactive) | > 100 µM (inactive) | > 100 µM (inactive) | > 100 µM (inactive) | > 100 µM (inactive) | > 100 µM (inactive) | > 100 µM (inactive) | – | > 100 µM (inactive) | > 100 µM (inactive) | > 100 µM (inactive) | > 100 µM (inactive) | > 100 µM (inactive)
CC(=O)O[C@H]1CC[C@H]2[C@@H]3CCC4=C(C(=O)C=CC4(C)OC(C)=O)[C@H]3CC[C@]12C (some centres not stated) | 41 µM (inactive) | > 100 µM (inactive) | 49.4 µM (inactive) | 35.8 µM (inactive) | 55.3 µM (inactive) | > 100 µM (inactive) | > 100 µM (inactive) | 43.6 µM (inactive) | 29.1 µM (inactive) | > 100 µM (inactive) | 31.6 µM (inactive) | 41.5 µM (inactive) | – | 23.1 µM (inactive) | > 100 µM (inactive) | 43.7 µM (inactive) | 46.8 µM (inactive) | 34.6 µM (inactive) | > 100 µM (inactive) | 33.1 µM (inactive)
O=[N+]([O-])c1cccc2nc3ccccc3c(NCCN(CCO)CCO)c12 | 0.00268 µM (active) | 0.00501 µM (active) | 0.00141 µM (active) | 0.000774 µM (active) | 0.0397 µM (active) | 0.00208 µM (active) | 0.00367 µM (active) | 0.00689 µM (active) | 0.00498 µM (active) | – | – | 0.00537 µM (active) | 0.00527 µM (active) | 0.00396 µM (active) | 0.00836 µM (active) | 0.128 µM (active) | 0.00338 µM (active) | 0.00143 µM (active) | 0.00501 µM (active) | –
O=C1C=C2CO[C@H]3OC[C@H](O)[C@@H]1[C@@H]23 | 73.3 µM (inactive) | > 100 µM (inactive) | 30.9 µM (inactive) | 30.1 µM (inactive) | 37.3 µM (inactive) | > 100 µM (inactive) | 25.5 µM (inactive) | – | > 100 µM (inactive) | 33.6 µM (inactive) | 19 µM (inactive) | 22.9 µM (inactive) | 16.3 µM (inactive) | 67.5 µM (inactive) | 59.3 µM (inactive) | > 100 µM (inactive) | > 100 µM (inactive) | 35.2 µM (inactive) | 73.5 µM (inactive) | 26.9 µM (inactive)
CC1(C)OC(=O)C(=Cc2ccc([N+](=O)[O-])s2)C(=O)O1 | 18.9 µM (inactive) | 22.5 µM (inactive) | 14.9 µM (inactive) | 1.94 µM (inactive) | 10.8 µM (inactive) | 15.8 µM (inactive) | 14 µM (inactive) | 15.4 µM (inactive) | 14.7 µM (inactive) | 18.9 µM (inactive) | 13.2 µM (inactive) | 16.1 µM (inactive) | – | – | 17.3 µM (inactive) | 18.5 µM (inactive) | 12.3 µM (inactive) | 14.9 µM (inactive) | 16.6 µM (inactive) | –
C=CCN1C(=O)N/C(=C\c2ccc(Cl)cc2)C1=O | > 100 µM (inactive) | 22.6 µM (inactive) | > 100 µM (inactive) | > 100 µM (inactive) | – | > 100 µM (inactive) | > 100 µM (inactive) | > 100 µM (inactive) | > 100 µM (inactive) | > 100 µM (inactive) | > 100 µM (inactive) | > 100 µM (inactive) | – | 97.7 µM (inactive) | > 100 µM (inactive) | > 100 µM (inactive) | > 100 µM (inactive) | > 100 µM (inactive) | > 100 µM (inactive) | > 100 µM (inactive)
Fc1ccc(C(OCCN2CCC3CCC(C2)N3C/C=C/c2cccs2)c2ccc(F)cc2)cc1 (configuration not stated) | 9.31 µM (inactive) | 9.06 µM (inactive) | 6.98 µM (inactive) | 5.98 µM (inactive) | 12 µM (inactive) | 12.3 µM (inactive) | 3.56 µM (inactive) | 10.6 µM (inactive) | 4.44 µM (inactive) | 6.47 µM (inactive) | 8.09 µM (inactive) | 5.69 µM (inactive) | 10.7 µM (inactive) | 11.5 µM (inactive) | 11.1 µM (inactive) | 6.24 µM (inactive) | 4.25 µM (inactive) | 10.3 µM (inactive) | 13.1 µM (inactive) | –
COC1CC(n2ccc(=O)[nH]c2=O)OC1CO (configuration not stated) | > 100 µM (inactive) | > 100 µM (inactive) | > 100 µM (inactive) | > 100 µM (inactive) | > 100 µM (inactive) | > 100 µM (inactive) | > 100 µM (inactive) | > 100 µM (inactive) | > 100 µM (inactive) | > 100 µM (inactive) | > 100 µM (inactive) | > 100 µM (inactive) | > 100 µM (inactive) | > 100 µM (inactive) | – | > 100 µM (inactive) | > 100 µM (inactive) | > 100 µM (inactive) | > 100 µM (inactive) | > 100 µM (inactive)
COc1ccc(-c2nnc3n(C)c4ccccc4n3c2=O)cc1 | 18.2 µM (inactive) | > 100 µM (inactive) | > 100 µM (inactive) | > 100 µM (inactive) | 42.8 µM (inactive) | > 100 µM (inactive) | > 100 µM (inactive) | 32.7 µM (inactive) | > 100 µM (inactive) | > 100 µM (inactive) | > 100 µM (inactive) | 59 µM (inactive) | > 100 µM (inactive) | – | 89.1 µM (inactive) | > 100 µM (inactive) | > 100 µM (inactive) | > 100 µM (inactive) | > 100 µM (inactive) | –
